According to patent US11679111B2, “Fatty acid synthase inhibitors” (priority 2016, dated 2023):
Where two headings read alike, the source gives them in different places.

What was measured:
TZM-bl cells = experiment: Cellular toxicity / viability in the TZM-bl model
Excerpt: (§1) The data presented are mean values (±SD) from three independent experiments. ** Indicates p<0.0001, treatment versus DMSO-treated control (Students t-test).

[1] = Cellular toxicity / viability in the TZM-bl model; conditions: human, TZM-bl cells
Excerpt: as §1

human FASN = biological target: T1, human FASN (Homo sapiens, UniProt P49327); experiment: FASN activity assay, 2-[14C] malonyl CoA incorporation into lipids by purified enzyme; format: biochemical
T1 construct: endogenous in cells; host or cells: BT474 cells; endogenous enzyme purified by ammonium sulfate cuts and Sephacryl S-300 gel filtration, about 85% pure
Protocol: Human FASN activity was measured by monitoring the incorporation of 2-[^14C] malonyl CoA into fatty acids using liquid scintillation counting by a method similar to the one described by Richardson et al (Richardson and Smith, 2007). FASN (10 μg/ml of PBS containing 1 mM DTT and 1 mM EDTA) was pre-incubated with different concentrations of HS-106 (final DMSO concentration 1%) at 37° C. for 30 minutes, then substrates were added (20 μM acetyl CoA and 200 μM NADPH) in a total reaction volume of 100 μl. The reaction was initiated by adding 10 μl of 50 μM malonyl CoA spiked with 0.05 μCi of 2-[^14C] malonyl CoA. After incubation for 30 minutes at 37° C., lipids were extracted 3 times with 150 μl (2:1, v/v) chloroform:methanol. Then, to the pooled organic phases, 1 ml of toluene containing 25 g/L Butyl-PBD was added and radioactivity was measured by liquid scintillation counting.
Confluent BT474 cells grown in high glucose DMEM with 10% FBS, were scraped and washed two times with ice cold PBS. […]
Human FASN activity was measured by monitoring the incorporation of 2-[^14C] […] Then, to the pooled organic phase, 1 ml of Toluene containing […] Butyl PBD was added and radioactivity was measured by scintillation counting. […]

BT474 cells = experiment: Caspase 3/7 activity assay; format: cell-based; conditions: BT474, 24 hours
Protocol: (§2) The assay was performed using a similar protocol to the one described by Fritz et al (Fritz et al., 2001). Cells were seeded at a density of 10,000 cells/well and treated with different concentrations of HS-106 or C75. After 24 hours, to each well, 50 μl of Caspase assay/lysis buffer (50 mM HEPES pH 7.5, 100 mM KCl, 5 mM EDTA, 10 mM MgC12, 10 mM CHAPS, 20% Sucrose, 10 mM DTT, 10 μM of (Z-DEVD)2-Rh110 (Santa Cruz Biotech) and complete protease inhibitor (Roche))was added. After 6 hours of incubation at 37° C., fluorescence was measured at Ex/Em: 485/535 nm.

SKBR3 cells = experiment: Caspase 3/7 activity assay; format: cell-based; conditions: SKBR3, 24 hours
Protocol: as §2

[2] = tested on: MCF7, MDA-MB-468, BT474 and SKBR3 cells; experiment: Proliferation assay (Hoechst DNA content), aggressive breast cancer cell lines; format: cell-based; conditions: MCF7, MDA-MB-468, BT474, SKBR3
Protocol: MCF10A (5,000 cells/well), MCF7 (7,500 cells/well), MDA-MB-468 (5,000 cells/well), BT474 (7,500 cells/well), and SKBR3 (5,000 cells/well) were seeded in 96 well plates with 10% FBS 4 g/L glucose DMEM media except for MCF10A which was DMEM/F12 media. After 24 hours, cells were treated with different concentration of HS-106 or C75. Every 24 hours for five days, media from one of the plates was removed and plate was frozen at −80° C. After collecting all the time points, to each well 100 μl ddH2O was add and the plates were frozen again. Then 100 μI of Hoechst 33258 solution made in TNE buffer (1 μl from Hoechst stock (1 mg/ml in 1:4 DMSO:H20) in 1 ml of TNE (which contains 10 mM Tris, 2M NaCl and 1 mM Na2EDTA) and fluorescence was measured at Ex/Em: 355/460.

[3] = tested on: ATP binding proteins of BT474 cells lysate; experiment: Elution of ATP Sepharose loaded with BT474 cells lysate; conditions: 1, 2.5, 5 and 10 mM
Protocol: FIGS. 13A-13D illustrate the characterization of purified FASN and Fasnall elution of ATP Sepharose. […] Lane 6 and 7 are 10 mM Staurosporine and 50 mM ATP, respectively, as positive controls.

T1 sequence (P49327 whole entry): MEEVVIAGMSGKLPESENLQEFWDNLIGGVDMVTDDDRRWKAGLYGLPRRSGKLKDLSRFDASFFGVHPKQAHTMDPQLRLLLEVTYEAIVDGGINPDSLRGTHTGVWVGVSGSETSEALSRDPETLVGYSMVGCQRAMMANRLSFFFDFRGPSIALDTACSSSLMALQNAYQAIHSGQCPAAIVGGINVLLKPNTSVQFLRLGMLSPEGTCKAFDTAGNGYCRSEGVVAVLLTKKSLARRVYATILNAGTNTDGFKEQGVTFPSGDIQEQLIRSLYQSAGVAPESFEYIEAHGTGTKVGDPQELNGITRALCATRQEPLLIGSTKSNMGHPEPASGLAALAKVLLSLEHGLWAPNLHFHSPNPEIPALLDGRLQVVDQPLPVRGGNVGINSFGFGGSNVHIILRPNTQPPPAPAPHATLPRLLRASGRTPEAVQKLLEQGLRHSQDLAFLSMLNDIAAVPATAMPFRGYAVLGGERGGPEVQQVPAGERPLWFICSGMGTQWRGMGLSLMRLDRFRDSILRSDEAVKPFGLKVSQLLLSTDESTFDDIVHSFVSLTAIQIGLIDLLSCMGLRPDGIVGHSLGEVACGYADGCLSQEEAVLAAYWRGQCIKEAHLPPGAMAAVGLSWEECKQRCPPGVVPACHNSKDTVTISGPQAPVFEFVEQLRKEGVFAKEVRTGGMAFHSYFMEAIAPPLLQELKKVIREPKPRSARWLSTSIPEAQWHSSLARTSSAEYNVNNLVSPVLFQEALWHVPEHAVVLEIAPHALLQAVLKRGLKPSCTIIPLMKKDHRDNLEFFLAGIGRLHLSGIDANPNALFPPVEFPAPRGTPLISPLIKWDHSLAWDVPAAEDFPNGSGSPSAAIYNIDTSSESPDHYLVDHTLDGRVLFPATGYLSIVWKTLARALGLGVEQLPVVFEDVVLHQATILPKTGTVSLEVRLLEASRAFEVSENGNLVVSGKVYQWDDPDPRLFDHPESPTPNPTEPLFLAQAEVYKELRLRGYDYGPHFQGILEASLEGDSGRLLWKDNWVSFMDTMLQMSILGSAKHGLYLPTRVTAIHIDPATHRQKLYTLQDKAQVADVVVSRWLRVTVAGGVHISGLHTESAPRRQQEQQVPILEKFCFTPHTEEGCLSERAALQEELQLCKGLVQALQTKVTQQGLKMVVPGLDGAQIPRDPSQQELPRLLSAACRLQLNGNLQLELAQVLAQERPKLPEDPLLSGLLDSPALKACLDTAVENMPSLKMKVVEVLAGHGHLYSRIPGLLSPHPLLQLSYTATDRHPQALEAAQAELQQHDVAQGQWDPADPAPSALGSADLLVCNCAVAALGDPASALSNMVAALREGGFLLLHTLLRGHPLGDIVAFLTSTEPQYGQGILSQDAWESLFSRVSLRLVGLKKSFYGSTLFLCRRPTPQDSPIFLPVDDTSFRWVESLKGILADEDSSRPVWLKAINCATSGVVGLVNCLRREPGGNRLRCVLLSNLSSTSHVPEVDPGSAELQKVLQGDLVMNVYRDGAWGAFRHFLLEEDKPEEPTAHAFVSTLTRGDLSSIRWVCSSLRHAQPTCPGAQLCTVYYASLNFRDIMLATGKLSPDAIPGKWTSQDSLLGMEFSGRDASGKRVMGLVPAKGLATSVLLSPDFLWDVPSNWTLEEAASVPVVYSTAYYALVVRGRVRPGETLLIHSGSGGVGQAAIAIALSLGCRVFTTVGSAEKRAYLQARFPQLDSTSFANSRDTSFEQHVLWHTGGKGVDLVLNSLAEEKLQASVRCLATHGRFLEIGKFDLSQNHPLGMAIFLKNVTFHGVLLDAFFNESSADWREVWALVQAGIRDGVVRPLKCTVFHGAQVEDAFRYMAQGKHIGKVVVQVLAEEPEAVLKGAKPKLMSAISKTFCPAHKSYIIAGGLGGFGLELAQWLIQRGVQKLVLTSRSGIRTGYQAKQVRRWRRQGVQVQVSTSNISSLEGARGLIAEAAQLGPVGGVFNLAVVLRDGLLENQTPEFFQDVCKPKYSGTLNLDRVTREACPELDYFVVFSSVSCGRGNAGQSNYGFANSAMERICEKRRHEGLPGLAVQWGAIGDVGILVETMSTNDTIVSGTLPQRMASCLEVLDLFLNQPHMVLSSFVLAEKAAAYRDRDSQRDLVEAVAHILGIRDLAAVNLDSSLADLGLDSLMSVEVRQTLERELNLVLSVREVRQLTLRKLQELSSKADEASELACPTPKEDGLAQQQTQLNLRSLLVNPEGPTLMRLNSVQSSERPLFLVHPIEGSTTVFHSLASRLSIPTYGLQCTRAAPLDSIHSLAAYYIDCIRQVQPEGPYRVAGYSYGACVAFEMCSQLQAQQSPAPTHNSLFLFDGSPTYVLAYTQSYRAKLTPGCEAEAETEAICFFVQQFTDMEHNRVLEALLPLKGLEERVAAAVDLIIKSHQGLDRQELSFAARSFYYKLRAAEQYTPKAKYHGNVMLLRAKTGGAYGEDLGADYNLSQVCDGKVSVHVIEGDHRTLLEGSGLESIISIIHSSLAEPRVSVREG
Protocol for PBMC: Unfixed PBMCs were exposed to drug for 48 hours, and PBMC viability was assessed by flow cytometry using propidium iodine (PI) exclusion (BD Pharmingen) and Annexin V staining (BD Pharmingen). Viable cells are defined as cells that both exclude PI and are Annexin V negative.

SMILES: Cc1sc2ncnc(NC3CCN(Cc4ccccc4)C3)c2c1C (racemic) [HS-106, N-(1-benzylpyrrolidin-3-yI)-5,6-dimethylthieno[2,3-d]pyrimidin-4-amine]
- TZM-bl cell viability (MTT-activity) (TZM-bl cells): without significant effects on TZM-bl cell viability
- CC50 [1]: 10 µM
- IC50 (human FASN): 3.71 µM
- IC50 (human FASN; FIG. 2E, read-out: IC50, native human FASN (purified)): 0.046 µM
- caspase activity relative to MCF10A cells (BT474 cells): 10 fold
- caspase activity relative to MCF10A cells (SKBR3 cells): 2 fold
- inhibition of proliferation [2]: inhibited the proliferation of aggressive cell lines with similar potency to C75
- elution of proteins from ATP Sepharose [3]: does not elute any proteins more than DMSO
- effect on PBMC viability (PBMC): negligible effects on cell viability
